Source: US20080161248A1, “Methods and Compositions for Therapeutic Treatment” (priority 2006, published 2008)
Read-outs that look alike come from different tables or passages of the source.

Key:
[1] = mice, mdr1 gene depleted; cited from earlier work
[2] = cited from earlier work
[3] = liver transplantation, European study, 12-month post-transplant; cited from earlier work
[4] = cited from earlier work; remark: listed apart in the source
[5] = cited from earlier work; remark: listed apart in the source
[6] = cited from earlier work; remark: listed apart in the source
[7] = tested on: mouse spleen cells, response to Con A; assay: In vitro Con A assay on spleen cells; assay type: cell-based; conditions: high ([…]10^6 cells/well) and low (8×10^5 cells/well) cell concentration
Source text: (§1) Animals: 8-9 weeks-old Lewis and Brown Norway male rats were obtained from Charles River Laboratories. General procedures for animal care and housing was in accordance with the National Research Council (NRC) Guide for the Care and Use of Laboratory Animals (1996) and the Animal Welfare Standards incorporated in 9 CFR Part 3, 1991.
(§2) Spleens were collected for use in in vitro Con A and LPS assays.
Results: FIGS. 8 and 9 show the effect of quercetin and tacrolimus on response of mouse spleen cells to Con A at a high (1.6×10^6 cells/well) and low (8×10^5 cells/well) cell concentration, respectively.
Spleen cells were treated with Con A in the presence of vehicle, tacrolimus, quercetin or two different concentrations of tacrolimus (10^−8.2 and 10^−8.5 M) and increasing doses of quercetin at a high cell concentration (FIG. 14) or at a low cell concentration (FIG. 15). […] There was no significance difference between the effect of quercetin on tacrolimus induced cell suppression in vitro at the different concentrations used for quercetin.

[8] = liver transplantation, U.S. study, 12-month post-transplant; cited from earlier work
[9] = tested on: mouse spleen cells, response to LPS; assay: In vitro LPS assay on spleen cells; assay type: cell-based; conditions: high ([…]10^6 cells/well) and low (8×10^5 cells/well) cell concentration
Source text: as §1, §2
FIGS. 10 and 11 show the effect of quercetin and tacrolimus on response of mouse spleen cells to LPS at a high (1.6×10^6 cells/well) and low (8×10^5 cells/well) cell concentration, respectively.

[10] = tested on: LEW responder splenocytes with irradiated BN stimulators (lymphocyte proliferation); assay: Mixed lymphocyte reaction (MLR) with spleen cells of treated Lewis rats; assay type: cell-based, rat; conditions: Lewis rats 1 mg/kg i.v.; spleens 4 hr after dosing; R:S ratios 0.5:1, 1:1, 5:1
Procedure: Animals: 8-9 weeks-old Lewis and Brown Norway male rats were obtained from Charles River Laboratories. […] Treatment: Lewis rats were treated with different single doses of LNS 0694i.p. 30 minutes prior to single i.v. injections of tacrolimus at a concentration of 1 mg/kg as described in the table below. Spleens were collected at 4 hr after administration of FK506 for use in the in vitro mixed lymphocyte reaction (MLR) and Con A assays. […] Mixed lymphocyte reactions: A single cell suspension of the spleen of each rat on test (LEW, responder) was prepared with a Dounce homogenizer and wash-medium. The cell suspension was depleted of red blood cells (treatment with NH4CL/Tris buffer) and washed twice with wash medium before resuspending in complete medium (CM; […] A single cell suspension of splenocytes from five Brown Norway rats (BN, stimulators) was prepared with the same method. The BN splenocytes were pooled and irradiated with 1,500-2,000 rad (cesium source) before use. Varying numbers of responder cells were mixed with a constant number of stimulators (105) in 96-well, U-bottom cell culture plates to give a final responder:stimulator (R:S) ratio of 10:1,5: 1, 1:1 and 0.5:1 in 200 μl CM. […] The results of the MLR assays [thymidine incorporation as counts per minute (CPM)] are expressed as mean ±SD.

C=CC[C@@H]1/C=C(\C)C[C@H](C)C[C@H](OC)C2O[C@@](O)(C(=O)C(=O)N3CCCC[C@H]3C(=O)O[C@H](/C(C)=C/[C@@H]3CC[C@@H](O)[C@H](OC)C3)[C@H](C)[C@@H](O)CC1=O)[C@H](C)C[C@@H]2OC (relative stereo) [Prograf, [3S-[3R[E(1S*,3S*,4S*)], 4S*,5R*,8S*,9E,12R*,14R*,15S*,16R*,18S*,19S*,26aR*]]-,6,8,11,12,13,14,15,16,17,18,19,24,25,26,26a-hexadecahydro-5,19-dihydroxy-3-[2-(4-hydroxy-3-methoxycyclohexyl)-1-methylethenyl]-14,16-dimethoxy-4,10,12,18-tetramethyl-8-(2-propenyl)-15,19-epoxy-3H-pyrido[2,1-c][1,4]oxaazacyclotricosine-1,7,20,21 (4H,23H)-tetrone, monohydrate]
concentration in the brain [1]: markedly increased
Neurotoxicity, including tremor, headache, and other changes in motor function, mental status, and sensory function ([2]; liver transplant recipients, two randomized studies): approximately 55%
proportion of patients reporting more than one adverse event ([2]; two randomized comparative liver transplant trials): 99.8%
Adverse event: Abdominal Pain [3]: 29%
Adverse event: Anemia [3]: 5%
Adverse event: Anorexia [3]: 7%
Adverse event: Ascites [3]: 7%
Adverse event: Asthenia [3]: 11%
Adverse event: Atelectasis [3]: 5%
Adverse event: BUN Increased [3]: 12%
Adverse event: Back Pain [3]: 17%
Adverse event: Constipation [3]: 23%
Adverse event: Creatinine Increased [3]: 24%
Adverse event: Diarrhea [3]: 37%
Adverse event: Dyspnea [3]: 5%
Adverse event: Fever [3]: 19%
Adverse event: Headache [3]: 37%
Adverse event: Hyperglycemia [3]: 33%
Adverse event: Hyperkalemia [3]: 13%
Adverse event: Hypertension [3]: 38%
Adverse event: Hypokalemia [3]: 13%
Adverse event: Hypomagnesemia [3]: 16%
Adverse event: Insomnia [3]: 32%
Adverse event: Kidney Function Abnormal [3]: 36%
Adverse event: LFT Abnormal [3]: 6%
Adverse event: Leukocytosis [3]: 8%
Adverse event: Nausea [3]: 32%
Adverse event: Oliguria [3]: 19%
Adverse event: Pain [3]: 24%
Adverse event: Paresthesia [3]: 17%
Adverse event: Peripheral Edema [3]: 12%
Adverse event: Pleural Effusion [3]: 36%
Adverse event: Pruritus [3]: 15%
Adverse event: Rash [3]: 10%
Adverse event: Thrombocytopenia [3]: 14%
Adverse event: Tremor [3]: 48%
Adverse event: Urinary Tract Infection [3]: 21%
Adverse event: Vomiting [3]: 14%
aqueous solubility [4]: poor
erythrocyte and plasma protein binding [5]: extensive
patients with trough concentrations within the pre-defined target range ([6]; European heart study, target range 5-15 ng/mL): 74-86%
Adverse event: Tremor ([6]; heart transplant patients, European trial): 15%
effect on response of spleen cells to Con A (proliferation) [7]: inhibited Con A-induced proliferation in a dose dependent manner
Adverse event: Abdominal Pain [8]: 59%
Adverse event: Anemia [8]: 47%
Adverse event: Anorexia [8]: 34%
Adverse event: Ascites [8]: 27%
Adverse event: Asthenia [8]: 52%
Adverse event: Atelectasis [8]: 28%
Adverse event: BUN Increased [8]: 30%
Adverse event: Back Pain [8]: 30%
Adverse event: Constipation [8]: 24%
Adverse event: Creatinine Increased [8]: 39%
Adverse event: Diarrhea [8]: 72%
Adverse event: Dyspnea [8]: 29%
Adverse event: Fever [8]: 48%
Adverse event: Headache [8]: 64%
Adverse event: Hyperglycemia [8]: 47%
Adverse event: Hyperkalemia [8]: 45%
Adverse event: Hypertension [8]: 47%
Adverse event: Hypokalemia [8]: 29%
Adverse event: Hypomagnesemia [8]: 48%
Adverse event: Insomnia [8]: 64%
Adverse event: Kidney Function Abnormal [8]: 40%
Adverse event: LFT Abnormal [8]: 36%
Adverse event: Leukocytosis [8]: 32%
Adverse event: Nausea [8]: 46%
Adverse event: Oliguria [8]: 18%
Adverse event: Pain [8]: 63%
Adverse event: Paresthesia [8]: 40%
Adverse event: Peripheral Edema [8]: 26%
Adverse event: Pleural Effusion [8]: 30%
Adverse event: Pruritus [8]: 36%
Adverse event: Rash [8]: 24%
Adverse event: Thrombocytopenia [8]: 24%
Adverse event: Tremor [8]: 56%
Adverse event: Urinary Tract Infection [8]: 16%
Adverse event: Vomiting [8]: 27%
effect on response of spleen cells to LPS (proliferation) [9]: inhibited LPS-induced proliferation in a dose dependent manner
effect on MLR (lymphocyte proliferation, thymidine incorporation) [10]: inhibited MLR
